According to patent publication US20060276464A1, “Diarylsulfone sulfonamides and use thereof” (Wyeth, priority 2005, published 2006):
Like-named read-outs stand apart in the source and are kept apart here.

Target: T1, SFRP-1 (Homo sapiens, UniProt Q8N474)
T1 sequence (Q8N474 32-314): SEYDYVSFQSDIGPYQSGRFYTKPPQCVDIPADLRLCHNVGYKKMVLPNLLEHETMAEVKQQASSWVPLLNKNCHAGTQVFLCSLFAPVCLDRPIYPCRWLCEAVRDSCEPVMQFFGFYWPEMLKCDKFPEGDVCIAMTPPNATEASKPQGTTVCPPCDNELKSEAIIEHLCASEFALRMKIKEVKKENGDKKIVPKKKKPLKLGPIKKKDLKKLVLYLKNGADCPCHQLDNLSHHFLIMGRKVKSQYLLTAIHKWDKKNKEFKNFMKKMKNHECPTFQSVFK
Experiment: Cell-based assay for in vitro measurement of SFRP-1/SARP2 antagonist activity (U2OS cells co-transfected with 16x TCF-tk-Luciferase reporter, Wnt and hSFRP-1);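 further: U2OS cells co-transfected with a TCF-tk luciferase reporter, a Wnt vector, hSFRP-1 or empty vector and CMV-βgal, luciferase luminescence read in cell lysates alongside βgal activity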
Conditions: for fold induction at 15 µM / fold induction at 10 µM: U2OS; for fold induction at 15 µM: single dose, luciferase reporter; for fold induction at 10 µM: read-out: Fold Induction with SFRP-1, U2OS cells, single dose 10 μM, luciferase reporter, fold induction over SFRP-1 control

[1] = read-out: Fold Induction with SFRP-1, Conc 15 μM, fold induction over SFRP-1 control, cells with SFRP-1
[2] = read-out: Fold Induction without SFRP-1, Conc 15 μM, cells without SFRP-1 (specificity control)

fold induction at 15 µM [1]	fold induction at 15 µM [2]	fold induction at 10 µM	EC50 [µM]	Compound
		0.9		Cc1ccc2c(c1)CCCN2C(=O)CCNS(=O)(=O)c1cc(S(=O)(=O)c2ccccc2)ccc1C [Example 669, 2-methyl-N-[3-(6-methyl-3,4-dihydroquinolin-1(2H)-yl)-3-oxopropyl]-5-(phenylsulfonyl)benzenesulfonamide]
		2	15.9	O=S(=O)(NCCO)c1cc(S(=O)(=O)c2ccccc2)ccc1Cl [Example 673, 2-chloro-N-(2-hydroxyethyl)-5-(phenylsulfonyl)benzenesulfonamide]
		2	24.1	CC(CO)NS(=O)(=O)c1cc(S(=O)(=O)c2ccccc2)ccc1Cl (stereo not drawn) [Example 674, 2-chloro-N-(2-hydroxy-1-methylethyl)-5-(phenylsulfonyl)benzenesulfonamide]
		1.7	41.5	O=S(=O)(NC(CO)CO)c1cc(S(=O)(=O)c2ccccc2)ccc1Cl [Example 675, 2-chloro-N-[2-hydroxy-1-(hydroxymethyl)ethyl]-5-(phenylsulfonyl)benzenesulfonamide]
		1.5		C[C@H](NS(=O)(=O)c1cc(S(=O)(=O)c2ccccc2)ccc1C(F)(F)F)[C@H](O)c1ccccc1 [Example 685, N-[(1S,2R)-2-hydroxy-1-methyl-2-phenylethyl]-5-(phenylsulfonyl)-2-(trifluoromethyl)benzenesulfonamide]
		1.7		O=S(=O)(NC1CCN(C(=S)c2ccc(C(F)(F)F)cc2)CC1)c1cc(S(=O)(=O)c2ccccc2)ccc1C(F)(F)F [Example 724, 5-(phenylsulfonyl)-2-(trifluoromethyl)-N-(1-{[4-(trifluoromethyl)phenyl]carbonothioyl}piperidin-4-yl)benzenesulfonamide]
		2.2		CC(C)c1ccc(S(=O)(=O)c2ccc(F)cc2)cc1S(=O)(=O)NC1CCN(C(=S)Nc2ccc(C(F)(F)F)cc2)CC1 [Example 730, 4-[({5-[(4-fluorophenyl)sulfonyl]-2-isopropylphenyl}sulfonyl)amino]-N-[4-(trifluoromethyl)phenyl]piperidine-1-carbothioamide]
		1.6		CC(C)c1ccc(S(=O)(=O)c2ccc(F)cc2)cc1S(=O)(=O)NC(CO)C(C)C (stereo not drawn) [Example 734, 5-[(4-fluorophenyl)sulfonyl]-N-[1-(hydroxymethyl)-2-methylpropyl]-2-isopropylbenzenesulfonamide]
		2.4		Cc1cc(C)c(S(=O)(=O)c2ccccc2)cc1S(=O)(=O)NCC(O)c1cccnc1 (stereo not drawn) [Example 737, N-(2-hydroxy-2-pyridin-3-ylethyl)-2,4-dimethyl-5-(phenylsulfonyl)benzenesulfonamide]
		2.8		CC(C)(C)c1ccc(S(=O)(=O)N2CCC(NS(=O)(=O)c3cc(S(=O)(=O)c4ccccc4)ccc3C(F)(F)F)CC2)cc1 [Example 748, N-{1-[(4-tert-butylphenyl)sulfonyl]piperidin-4-yl}-5-(phenylsulfonyl)-2-(trifluoromethyl)benzenesulfonamide]
		1.3		Cc1ccc(S(=O)(=O)c2ccc(F)cc2)cc1S(=O)(=O)NCC(O)c1ccccn1 (stereo not drawn) [Example 756, 5-[(4-fluorophenyl)sulfonyl]-N-(2-hydroxy-2-pyridin-2-ylethyl)-2-methylbenzenesulfonamide]
		1.3		Cc1ccc(C(=O)NCCNS(=O)(=O)c2cc(S(=O)(=O)c3ccccc3)ccc2C(F)(F)F)cc1 [Example 775, 4-Methyl-N-[2-({[5-(phenylsulfonyl)-2-(trifluoromethyl)phenyl]sulfonyl}amino)ethyl]benzamide]
		0.9		CC(C)(C)c1ccc(C(=O)NCCNS(=O)(=O)c2cc(S(=O)(=O)c3ccccc3)ccc2C(F)(F)F)cc1 [Example 776, 4-tert-Butyl-N-[2-({[5-(phenylsulfonyl)-2-(trifluoromethyl)phenyl]sulfonyl}amino)ethyl]benzamide]
		1.1		O=C(NCCNS(=O)(=O)c1cc(S(=O)(=O)c2ccccc2)ccc1C(F)(F)F)c1ccc(F)cc1 [Example 777, 4-Fluoro-N-[2-({[5-(phenylsulfonyl)-2-(trifluoromethyl)phenyl]sulfonyl}amino)ethyl]benzamide]
		1.2		O=C(NCCNS(=O)(=O)c1cc(S(=O)(=O)c2ccccc2)ccc1C(F)(F)F)c1ccc(Cl)cc1 [Example 778, 4-Chloro-N-[2-({[5-(phenylsulfonyl)-2-(trifluoromethyl)phenyl]sulfonyl}amino)ethyl]benzamide]
		1		O=C(NCCNS(=O)(=O)c1cc(S(=O)(=O)c2ccccc2)ccc1C(F)(F)F)c1ccc(Br)cc1 [Example 779, 4-Bromo-N-[2-({[5-(phenylsulfonyl)-2-(trifluoromethyl)phenyl]sulfonyl}amino)ethyl]benzamide]
		1.7		COc1ccc(C(=O)NCCNS(=O)(=O)c2cc(S(=O)(=O)c3ccccc3)ccc2C(F)(F)F)cc1 [Example 780, 4-Methoxy-N-[2-({[5-(phenylsulfonyl)-2-(trifluoromethyl)phenyl]sulfonyl}amino)ethyl]benzamide]

Further lines, the compound ahead of its results:

Compound	fold induction at 15 µM [1]	fold induction at 15 µM [2]	fold induction at 10 µM	EC50 [µM]
O=S(=O)(c1ccccc1)c1ccc(Cl)c(S(=O)(=O)N2CCN(Cc3ccc4c(c3)OCO4)CC2)c1 [Example 637, 1-(1,3-benzodioxol-5-ylmethyl)-4-{[2-chloro-5-(phenylsulfonyl)phenyl]sulfonyl}piperazine]	0.9	1		
CC(C)(C)OC(=O)NC1CCN(S(=O)(=O)c2cc(S(=O)(=O)c3ccccc3)ccc2Cl)C1 (stereo not drawn) [Example 638, tert-butyl(1-{[2-chloro-5-(phenylsulfonyl)phenyl]sulfonyl}pyrrolidin-3-yl)carbamate]	1.2	1.1		
CC(C)(C)OC(=O)NC1CCN(S(=O)(=O)c2cc(S(=O)(=O)c3ccccc3)ccc2Cl)CC1 [Example 639, tert-butyl(1-{[2-chloro-5-(phenylsulfonyl)phenyl]sulfonyl}piperidin-4-yl)carbamate]	0.9	1		
CN1CCN(CCCNS(=O)(=O)c2cc(S(=O)(=O)c3ccccc3)ccc2Cl)CC1 [Example 642, 2-chloro-N-[3-(4-methylpiperazin-1-yl)propyl]-5-(phenylsulfonyl)benzenesulfonamide]	2.2	1.1		
CCN(CC)C1CCN(S(=O)(=O)c2cc(S(=O)(=O)c3ccccc3)ccc2Cl)C1 (stereo not drawn) [Example 644, 1-{[2-chloro-5-(phenylsulfonyl)phenyl]sulfonyl}-N,N-diethylpyrrolidin-3-amine]	1.3	1.1		
CCOC(=O)C1CCCN(S(=O)(=O)c2cc(S(=O)(=O)c3ccccc3)ccc2Cl)C1 (stereo not drawn) [Example 645, ethyl 1-{[2-chloro-5-(phenylsulfonyl)phenyl]sulfonyl}piperidine-3-carboxylate]	1	1.1		
CN(CCc1ccccn1)S(=O)(=O)c1cc(S(=O)(=O)c2ccccc2)ccc1Cl [Example 646, 2-chloro-N-methyl-5-(phenylsulfonyl)-N-(2-pyridin-2-ylethyl)benzenesulfonamide]	1	1.1		
Cc1ccc(C)n1CC1CCN(S(=O)(=O)c2cc(S(=O)(=O)c3ccccc3)ccc2Cl)CC1 [Example 653, 1-{[2-chloro-5-(phenylsulfonyl)phenyl]sulfonyl}-4-[(2,5-dimethyl-1H-pyrrol-1-yl)methyl]piperidine]	1	1		
COC(=O)C(C)(C)NS(=O)(=O)c1cc(S(=O)(=O)c2ccccc2)ccc1Cl [Example 654, methyl N-{[2-chloro-5-(phenylsulfonyl)phenyl]sulfonyl}-2-methylalaninate]	1	1		
CC(C)(CO)NS(=O)(=O)c1cc(S(=O)(=O)c2ccccc2)ccc1Cl [Example 655, 2-chloro-N-(2-hydroxy-1,1-dimethylethyl)-5-(phenylsulfonyl)benzenesulfonamide]			1.1	
N#CCNS(=O)(=O)c1cc(S(=O)(=O)c2ccccc2)ccc1Cl [Example 663, 2-chloro-N-(cyanomethyl)-5-(phenylsulfonyl)benzenesulfonamide]			1	
Cc1ccc(S(=O)(=O)c2ccccc2)cc1S(=O)(=O)NCCC(=O)N1CCCC1 [Example 665, 2-methyl-N-(3-oxo-3-pyrrolidin-1-ylpropyl)-5-(phenylsulfonyl)benzenesulfonamide]			1.3	
Cc1ccc(S(=O)(=O)c2ccccc2)cc1S(=O)(=O)NCCC(=O)NC(C)(C)C [Example 666, N-(tert-butyl)-N^3-{[2-methyl-5-(phenylsulfonyl)phenyl]sulfonyl}-β-alaninamide]			1.5	27.2
Cc1ccc(S(=O)(=O)c2ccccc2)cc1S(=O)(=O)NCCC(=O)NC1CCCc2ccccc21 (stereo not drawn) [Example 667, N^3-{[2-methyl-5-(phenylsulfonyl)phenyl]sulfonyl}-N-(1,2,3,4-tetrahydronaphthalen-1-yl)-β-alaninamide]			0.9	
Cc1ccc(S(=O)(=O)c2ccccc2)cc1S(=O)(=O)NCCC(=O)N(C)c1ccccc1 [Example 668, N-methyl-N^3-{[2-methyl-5-(phenylsulfonyl)phenyl]sulfonyl}-N-phenyl-β-alaninamide]			1.4	
